Measured values reported in PubChem BioAssay AID330 (DTP/NCI, 2004).
Values joined by “and” are separate entries in the source; they are usually repeats but may differ in a detail not shown here. Equal entries are not always repeated. Toxic doses and inconclusive results are not listed. Rule for the calls: active = survival T/C of 150% or more; inactive = T/C below 125% in these data.

Tested on: P388 leukemia ip, CD2F1 mice, survival T/C
Test: NCI In Vivo Anticancer Drug Screen. Data for tumor model P388 Leukemia (intraperitoneal) in CD2F1 (CDF1) mice
Settings: endpoint: median survival time, higher = longer survival
Procedure, shortened: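 Mice carrying the transplanted tumor received test compound or vehicle. Survival was recorded in each group, and the value is the treated-group measurement divided by that of the vehicle-treated control group.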

[1] = dose: 100.0 mg/kg/injection, schedule: Q01DX009 (ip), vehicle: saline with Tween-80
[2] = dose: 100.0 mg/kg/injection, schedule: Q01DX009 (ip), vehicle: saline
[3] = dose: 100.0 mg/kg/injection, schedule: Q04DX003 (ip), vehicle: saline with Tween-80
[4] = dose: 200.0 mg/kg/injection, schedule: Q01DX009 (ip), vehicle: saline
[5] = dose: 200.0 mg/kg/injection, schedule: Q04DX003 (ip), vehicle: saline with Tween-80
[6] = dose: 400.0 mg/kg/injection, schedule: Q04DX003 (ip), vehicle: saline with Tween-80
[7] = dose: 60.0 mg/kg/injection, schedule: Q01DX005 (ip), vehicle: saline with Tween-80
[8] = dose: 120.0 mg/kg/injection, schedule: Q01DX005 (ip), vehicle: saline with Tween-80
[9] = dose: 50.0 mg/kg/injection, schedule: Q01DX009 (ip), vehicle: saline with Tween-80
[10] = dose: 50.0 mg/kg/injection, schedule: Q01DX009 (ip), vehicle: saline
[11] = dose: 200.0 mg/kg/injection, schedule: Q01DX009 (ip), vehicle: saline with Tween-80
[12] = dose: 50.0 mg/kg/injection, schedule: Q01DX005 (ip), vehicle: saline with Tween-80
[13] = dose: 100.0 mg/kg/injection, schedule: Q01DX005 (ip), vehicle: saline with Tween-80

Measured: T/C

OC(CI)C(O)C(O)C(O)CI (stereo not given)
inactive: [1] 105 % of control and 115 % of control | [2] 98 % of control | [3] 100 % of control and 104 % of control | dose: 132.0 mg/kg/injection, schedule: Q01DX009 (ip), vehicle: saline with Tween-80 122 % of control | [4] 91 % of control | [5] 104 % of control and 113 % of control | dose: 400.0 mg/kg/injection, schedule: Q01DX009 (ip), vehicle: saline 105 % of control | [6] 100 % of control and 113 % of control | dose: 500.0 mg/kg/injection, schedule: Q01DX009 (ip), vehicle: saline 96 % of control

O=C1C(=C(O)c2ccccc2)C(=O)c2ccccc21
inactive: dose: 15.0 mg/kg/injection, schedule: Q01DX005 (ip), vehicle: saline with Tween-80 99 % of control | dose: 30.0 mg/kg/injection, schedule: Q01DX005 (ip), vehicle: saline with Tween-80 105 % of control | [7] 105 % of control and 109 % of control | [8] 104 % of control

COc1ccc2c(c1)CCC1C2CCC2(C)/C(=N/O)C3OC3C12 (stereo not given)
inactive: dose: 12.5 mg/kg/injection, schedule: Q01DX009 (ip), vehicle: saline with Tween-80 94 % of control and 95 % of control | dose: 25.0 mg/kg/injection, schedule: Q01DX009 (ip), vehicle: saline with Tween-80 110 % of control and 94 % of control | [9] 101 % of control and 94 % of control | [1] 101 % of control and 94 % of control

CC(C)N1CCN(c2ccncc2S(=O)(=O)N2CCN(C)CC2)CC1
inactive: [10] 106 % of control | [2] 90 % of control | [4] 99 % of control

Cc1ccc(Cl)c(S(=O)(=O)F)c1
inactive: [11] 104 % of control | dose: 400.0 mg/kg/injection, schedule: Q01DX009 (ip), vehicle: saline with Tween-80 100 % of control

COc1cccc2c1C(=O)c1c(O)c3c(c(O)c1C2=O)C[C@@](O)(C(=O)O)C[C@@H]3OC1CC(N)C(O)C(C)O1 (stereo not given in full)
inactive: dose: 3.13 mg/kg/injection, schedule: Q01DX009 (ip), vehicle: water 88 % of control | dose: 6.25 mg/kg/injection, schedule: Q01DX009 (ip), vehicle: water 123 % of control | dose: 18.75 mg/kg/injection, schedule: Q01DX001 (ip), vehicle: water 114 % of control | dose: 37.5 mg/kg/injection, schedule: Q01DX001 (ip), vehicle: water 121 % of control | dose: 75.0 mg/kg/injection, schedule: Q01DX001 (ip), vehicle: water 114 % of control | dose: 150.0 mg/kg/injection, schedule: Q01DX001 (ip), vehicle: water 122 % of control | dose: 300.0 mg/kg/injection, schedule: Q01DX001 (ip), vehicle: water 123 % of control
active: dose: 50.0 mg/kg/injection, schedule: Q01DX009 (ip), vehicle: water 155 % of control | dose: 100.0 mg/kg/injection, schedule: Q01DX009 (ip), vehicle: water 158 % of control

Nc1nc2ccccc2n1C(=O)C(F)(F)F
inactive: dose: 100.0 mg/kg/injection, schedule: Q01DX001 (ip), vehicle: Klucel (hydroxypropylcellulose) (HPC) 98 % of control | dose: 200.0 mg/kg/injection, schedule: Q01DX001 (ip), vehicle: Klucel (hydroxypropylcellulose) (HPC) 116 % of control

CCOc1ccc(-n2c(=O)c(N=Nc3ccc(C)cc3)c(O)n(-c3ccc(Br)cc3)c2=S)cc1
inactive: dose: 100.0 mg/kg/injection, schedule: Q04DX002 (ip), vehicle: saline with Tween-80 96 % of control | dose: 200.0 mg/kg/injection, schedule: Q04DX002 (ip), vehicle: saline with Tween-80 94 % of control | dose: 400.0 mg/kg/injection, schedule: Q04DX002 (ip), vehicle: saline with Tween-80 90 % of control

COC(=O)NC1C(C)OC(OC2C/C=C(/C)C3C=CC4C(OC5CC(OC6CC(OC7CC(O)C(O)C(C)O7)C(OC7CC(O)C(OC)C(C)O7)C(C)O6)C(O)C(C)O5)C(C)CC(C)C4C3(C)/C(O)=C3\C(=O)OC4(CC(C)C(CO)=CC4/C=C\2C)C3=O)CC1(C)[N+](=O)[O-] (stereo not given)
inactive: dose: 7.5 mg/kg/injection, schedule: Q01DX009 (ip), vehicle: saline 106 % of control | dose: 15.0 mg/kg/injection, schedule: Q01DX009 (ip), vehicle: saline 115 % of control and 122 % of control | dose: 30.0 mg/kg/injection, schedule: Q01DX009 (ip), vehicle: saline 121 % of control

N=c1c2ccccc2nc2n1CCCCCCC2
inactive: dose: 25.0 mg/kg/injection, schedule: Q04DX003 (ip), vehicle: Klucel (hydroxypropylcellulose) (HPC) 103 % of control | dose: 50.0 mg/kg/injection, schedule: Q04DX003 (ip), vehicle: Klucel (hydroxypropylcellulose) (HPC) 91 % of control

CC(C)(C)S(=O)(=O)C(C)(C)C
inactive: dose: 25.0 mg/kg/injection, schedule: Q01DX001 (ip), vehicle: saline with Tween-80 109 % of control | dose: 50.0 mg/kg/injection, schedule: Q01DX001 (ip), vehicle: saline with Tween-80 111 % of control | dose: 100.0 mg/kg/injection, schedule: Q01DX001 (ip), vehicle: saline with Tween-80 95 % of control | dose: 200.0 mg/kg/injection, schedule: Q01DX001 (ip), vehicle: saline with Tween-80 100 % of control

CSc1nc(NC2OC(CO)C(O)C(O)C2O)c(Cl)c(=O)[nH]1 (stereo not given)
inactive: [7] 97 % of control | [8] 97 % of control | dose: 240.0 mg/kg/injection, schedule: Q01DX005 (ip), vehicle: saline with Tween-80 98 % of control

N#Cc1ccc[n+](CC(=O)c2ccc3ccccc3c2)c1
inactive: dose: 6.25 mg/kg/injection, schedule: Q01DX005 (ip), vehicle: Klucel (hydroxypropylcellulose) (HPC) 103 % of control | dose: 12.5 mg/kg/injection, schedule: Q01DX005 (ip), vehicle: Klucel (hydroxypropylcellulose) (HPC) 103 % of control | dose: 25.0 mg/kg/injection, schedule: Q01DX005 (ip), vehicle: Klucel (hydroxypropylcellulose) (HPC) 100 % of control

CN(C)c1ccc([N+](C)(C)Cc2ccc(C[N+](C)(C)c3ccc([N+](C)(C)Cc4ccc(CCl)cc4)cc3)cc2)cc1
inactive: dose: 3.13 mg/kg/injection, schedule: Q01DX001 (ip), vehicle: saline 108 % of control | dose: 6.25 mg/kg/injection, schedule: Q01DX001 (ip), vehicle: saline 112 % of control and 97 % of control

CC/C(=N\NS(=O)(=O)c1ccc(C)cc1)c1ccc(OC)c(C)c1
inactive: [9] 105 % of control | [10] 104 % of control | [1] 97 % of control | [11] 99 % of control | [4] 96 % of control

O=C(Nc1ccc(N=C=S)cc1Cl)c1ccc2ccccc2c1O
inactive: dose: 100.0 mg/kg/injection, schedule: Q04DX003 (ip), vehicle: Klucel (hydroxypropylcellulose) (HPC) 101 % of control and 105 % of control | dose: 200.0 mg/kg/injection, schedule: Q04DX003 (ip), vehicle: Klucel (hydroxypropylcellulose) (HPC) 100 % of control and 106 % of control | dose: 400.0 mg/kg/injection, schedule: Q04DX003 (ip), vehicle: Klucel (hydroxypropylcellulose) (HPC) 110 % of control and 123 % of control

O=c1nc2n(CC(O)C(O)C(O)C(O)CO)c3cc(Cl)c(Cl)cc3nc-2c(=O)[nH]1 (stereo not given)
inactive: [12] 105 % of control | [13] 111 % of control

Cc1cc(O)c(C(C)C)cc1S(=O)(=O)O (tested in a mixture with another compound)
inactive: [3] 100 % of control | [5] 95 % of control and 108 % of control | [6] 108 % of control

Cc1cc(=O)n2c(nc3cc(Cl)ccc32)s1
inactive: dose: 50.0 mg/kg/injection, schedule: Q01DX009 (ip), vehicle: Klucel (hydroxypropylcellulose) (HPC) 103 % of control | dose: 100.0 mg/kg/injection, schedule: Q01DX009 (ip), vehicle: Klucel (hydroxypropylcellulose) (HPC) 95 % of control | dose: 200.0 mg/kg/injection, schedule: Q01DX009 (ip), vehicle: Klucel (hydroxypropylcellulose) (HPC) 89 % of control

CN(C)CCCNc1cc(/C=C/c2ccc([N+](=O)[O-])cc2)nc2ccccc12
inactive: [12] 106 % of control | [13] 106 % of control | dose: 200.0 mg/kg/injection, schedule: Q01DX005 (ip), vehicle: saline with Tween-80 106 % of control

O=C(O)c1cnc2cc(F)ccc2c1Nc1ccc2c(c1)OCO2
inactive: dose: 60.0 mg/kg/injection, schedule: Q01DX005 (ip), vehicle: Klucel + Tween-80 97 % of control | dose: 120.0 mg/kg/injection, schedule: Q01DX005 (ip), vehicle: Klucel + Tween-80 94 % of control | dose: 240.0 mg/kg/injection, schedule: Q01DX005 (ip), vehicle: Klucel + Tween-80 89 % of control
